# Results taken from US20230257396A1, “MACROCYCLES AND THEIR USE” (BLOSSOMHILL THERAPEUTICS, INC., priority 2020, published 2023).
# Assays:
# Assay in all cases: KINOMEscan kinase binding assay (Eurofins/DiscoveRx), % Ctrl
# kinases [1] = target: T1, kinases (Homo sapiens, UniProt P00519); conditions: 1 μM
# T1 construct: purchased Eurofins/DiscoveRx; host or cells: E. coli BL21-derived host (T7 phage display) for most kinases; HEK-293 for the rest
# Method in brief: (§1)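 Competition binding: DNA- or phage-tagged kinases (T7 phage in E. coli BL21, or HEK-293-expressed) with immobilized biotinylated ligand beads and test compound, 1 h at room temperature. Bead-bound kinase eluted and quantified by qPCR; % Ctrl = (compound − positive control)/(negative control − positive control) ×100 at a single compound concentration.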
# kinases [2] = target: T2, kinases (Homo sapiens, UniProt P00519, E255K); conditions: 1 μM; ABL1(E255K)-phosphorylated
# T2 construct: purchased Eurofins/DiscoveRx; host or cells: E. coli BL21-derived host (T7 phage display) for most kinases; HEK-293 for the rest
# Method in brief: as §1
# kinases [3] = target: T3, kinases (Homo sapiens, UniProt P00519, Q252H); conditions: 1 μM
# T3 construct: purchased Eurofins/DiscoveRx; host or cells: E. coli BL21-derived host (T7 phage display) for most kinases; HEK-293 for the rest
# Method in brief: as §1
# kinases [4] = target: T4, kinases (Homo sapiens, UniProt P00519, T315I); conditions: 1 μM
# T4 construct: purchased Eurofins/DiscoveRx; host or cells: E. coli BL21-derived host (T7 phage display) for most kinases; HEK-293 for the rest
# Method in brief: as §1
# kinases [5] = target: T5, kinases (Homo sapiens, UniProt P00519, Y253F); conditions: 1 μM; ABL1(Y253F)-phosphorylated
# T5 construct: purchased Eurofins/DiscoveRx; host or cells: E. coli BL21-derived host (T7 phage display) for most kinases; HEK-293 for the rest
# Method in brief: as §1
# kinases [6] = target: T6, kinases (Homo sapiens, UniProt P00533, L858R); conditions: 1 μM; EGFR(L858R)
# T6 construct: purchased Eurofins/DiscoveRx; host or cells: E. coli BL21-derived host (T7 phage display) for most kinases; HEK-293 for the rest
# Method in brief: as §1
# kinases [7] = target: T7, kinases (Homo sapiens, UniProt P00533, L858R/T790M); conditions: 1 μM; EGFR(L858R, T790M)
# T7 construct: purchased Eurofins/DiscoveRx; host or cells: E. coli BL21-derived host (T7 phage display) for most kinases; HEK-293 for the rest
# Method in brief: as §1
# kinases [8] = target: T8, kinases (Homo sapiens, UniProt P07949, V804M); conditions: 1 μM; RET(V804M)
# T8 construct: purchased Eurofins/DiscoveRx; host or cells: E. coli BL21-derived host (T7 phage display) for most kinases; HEK-293 for the rest
# T8 sequence (P07949 29-1114 V804M): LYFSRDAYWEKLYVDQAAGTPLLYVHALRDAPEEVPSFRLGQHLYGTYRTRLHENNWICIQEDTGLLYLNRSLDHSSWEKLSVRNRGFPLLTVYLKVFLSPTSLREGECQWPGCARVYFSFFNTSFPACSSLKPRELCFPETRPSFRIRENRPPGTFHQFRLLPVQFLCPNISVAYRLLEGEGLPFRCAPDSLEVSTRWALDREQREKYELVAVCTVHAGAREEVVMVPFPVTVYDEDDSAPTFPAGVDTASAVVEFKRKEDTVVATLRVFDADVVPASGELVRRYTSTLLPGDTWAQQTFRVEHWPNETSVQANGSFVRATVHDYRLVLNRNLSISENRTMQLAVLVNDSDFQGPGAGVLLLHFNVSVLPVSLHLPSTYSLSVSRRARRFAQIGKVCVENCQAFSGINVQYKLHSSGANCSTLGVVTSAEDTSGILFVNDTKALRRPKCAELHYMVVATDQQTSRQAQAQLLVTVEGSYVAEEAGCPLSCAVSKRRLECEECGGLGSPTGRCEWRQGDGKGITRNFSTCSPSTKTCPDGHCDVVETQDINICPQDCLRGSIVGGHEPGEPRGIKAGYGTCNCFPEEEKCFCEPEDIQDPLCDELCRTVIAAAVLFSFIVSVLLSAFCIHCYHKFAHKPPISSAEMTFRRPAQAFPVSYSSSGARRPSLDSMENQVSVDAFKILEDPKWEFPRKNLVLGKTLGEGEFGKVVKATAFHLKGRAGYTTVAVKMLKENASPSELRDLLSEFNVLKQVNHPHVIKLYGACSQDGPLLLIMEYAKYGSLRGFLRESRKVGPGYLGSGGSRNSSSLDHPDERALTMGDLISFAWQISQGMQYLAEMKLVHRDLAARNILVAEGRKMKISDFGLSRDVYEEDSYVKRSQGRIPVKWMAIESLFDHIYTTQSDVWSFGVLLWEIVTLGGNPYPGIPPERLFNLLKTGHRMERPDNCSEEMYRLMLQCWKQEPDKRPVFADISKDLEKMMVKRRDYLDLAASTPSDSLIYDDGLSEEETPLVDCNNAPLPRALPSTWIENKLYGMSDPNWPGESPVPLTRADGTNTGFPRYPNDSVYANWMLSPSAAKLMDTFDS
# Method in brief: as §1
# kinases [9] = target: T9, kinases (Homo sapiens, UniProt P10721, D816V); conditions: 1 μM; KIT(D816V)
# T9 construct: purchased Eurofins/DiscoveRx; host or cells: E. coli BL21-derived host (T7 phage display) for most kinases; HEK-293 for the rest
# T9 sequence (P10721 26-976 D816V): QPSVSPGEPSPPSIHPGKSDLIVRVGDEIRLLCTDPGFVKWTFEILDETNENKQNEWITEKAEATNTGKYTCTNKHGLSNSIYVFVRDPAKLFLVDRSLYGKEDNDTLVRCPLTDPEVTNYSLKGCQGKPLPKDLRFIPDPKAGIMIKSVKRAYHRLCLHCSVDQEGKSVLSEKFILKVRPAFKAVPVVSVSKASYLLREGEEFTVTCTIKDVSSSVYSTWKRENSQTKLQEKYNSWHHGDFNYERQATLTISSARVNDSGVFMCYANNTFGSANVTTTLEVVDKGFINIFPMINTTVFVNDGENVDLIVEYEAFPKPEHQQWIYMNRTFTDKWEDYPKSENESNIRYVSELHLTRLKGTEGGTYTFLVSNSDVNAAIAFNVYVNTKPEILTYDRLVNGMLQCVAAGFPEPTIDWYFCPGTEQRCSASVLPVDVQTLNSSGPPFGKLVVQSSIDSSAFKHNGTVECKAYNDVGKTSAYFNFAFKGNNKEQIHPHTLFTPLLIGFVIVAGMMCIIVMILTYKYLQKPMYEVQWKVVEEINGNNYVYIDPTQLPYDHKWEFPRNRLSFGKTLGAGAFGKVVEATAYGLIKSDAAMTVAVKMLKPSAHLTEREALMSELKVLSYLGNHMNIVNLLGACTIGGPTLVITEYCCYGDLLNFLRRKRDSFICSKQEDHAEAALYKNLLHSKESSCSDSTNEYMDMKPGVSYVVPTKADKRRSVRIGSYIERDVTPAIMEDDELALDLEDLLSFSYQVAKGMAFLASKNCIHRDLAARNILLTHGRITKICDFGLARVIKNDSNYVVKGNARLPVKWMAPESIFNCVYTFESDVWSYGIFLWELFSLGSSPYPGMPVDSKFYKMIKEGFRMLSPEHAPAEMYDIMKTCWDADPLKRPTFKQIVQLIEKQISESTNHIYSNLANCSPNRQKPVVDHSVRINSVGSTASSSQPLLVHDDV
# Method in brief: as §1
# kinases [10] = target: T10, kinases (Homo sapiens, UniProt P10721, T670I/V559D); conditions: 1 μM; KIT(V559D, T670I)
# T10 construct: purchased Eurofins/DiscoveRx; host or cells: E. coli BL21-derived host (T7 phage display) for most kinases; HEK-293 for the rest
# T10 sequence (P10721 26-976 V559D/T670I): as the sequence (P10721 26-976 D816V) above, with V534D, T645I, V791D counted along it
# Method in brief: as §1
# kinases [11] = target: T11, kinases (Homo sapiens, UniProt P10721, V559D); conditions: 1 μM; KIT(V559D)
# T11 construct: purchased Eurofins/DiscoveRx; host or cells: E. coli BL21-derived host (T7 phage display) for most kinases; HEK-293 for the rest
# T11 sequence (P10721 26-976 V559D): as the sequence (P10721 26-976 D816V) above, with V534D, V791D counted along it
# Method in brief: as §1
# kinases [12] = target: T12, kinases (Homo sapiens, UniProt P17948); conditions: 1 μM; FLT1
# T12 construct: purchased Eurofins/DiscoveRx; host or cells: E. coli BL21-derived host (T7 phage display) for most kinases; HEK-293 for the rest
# T12 sequence (P17948 27-1338): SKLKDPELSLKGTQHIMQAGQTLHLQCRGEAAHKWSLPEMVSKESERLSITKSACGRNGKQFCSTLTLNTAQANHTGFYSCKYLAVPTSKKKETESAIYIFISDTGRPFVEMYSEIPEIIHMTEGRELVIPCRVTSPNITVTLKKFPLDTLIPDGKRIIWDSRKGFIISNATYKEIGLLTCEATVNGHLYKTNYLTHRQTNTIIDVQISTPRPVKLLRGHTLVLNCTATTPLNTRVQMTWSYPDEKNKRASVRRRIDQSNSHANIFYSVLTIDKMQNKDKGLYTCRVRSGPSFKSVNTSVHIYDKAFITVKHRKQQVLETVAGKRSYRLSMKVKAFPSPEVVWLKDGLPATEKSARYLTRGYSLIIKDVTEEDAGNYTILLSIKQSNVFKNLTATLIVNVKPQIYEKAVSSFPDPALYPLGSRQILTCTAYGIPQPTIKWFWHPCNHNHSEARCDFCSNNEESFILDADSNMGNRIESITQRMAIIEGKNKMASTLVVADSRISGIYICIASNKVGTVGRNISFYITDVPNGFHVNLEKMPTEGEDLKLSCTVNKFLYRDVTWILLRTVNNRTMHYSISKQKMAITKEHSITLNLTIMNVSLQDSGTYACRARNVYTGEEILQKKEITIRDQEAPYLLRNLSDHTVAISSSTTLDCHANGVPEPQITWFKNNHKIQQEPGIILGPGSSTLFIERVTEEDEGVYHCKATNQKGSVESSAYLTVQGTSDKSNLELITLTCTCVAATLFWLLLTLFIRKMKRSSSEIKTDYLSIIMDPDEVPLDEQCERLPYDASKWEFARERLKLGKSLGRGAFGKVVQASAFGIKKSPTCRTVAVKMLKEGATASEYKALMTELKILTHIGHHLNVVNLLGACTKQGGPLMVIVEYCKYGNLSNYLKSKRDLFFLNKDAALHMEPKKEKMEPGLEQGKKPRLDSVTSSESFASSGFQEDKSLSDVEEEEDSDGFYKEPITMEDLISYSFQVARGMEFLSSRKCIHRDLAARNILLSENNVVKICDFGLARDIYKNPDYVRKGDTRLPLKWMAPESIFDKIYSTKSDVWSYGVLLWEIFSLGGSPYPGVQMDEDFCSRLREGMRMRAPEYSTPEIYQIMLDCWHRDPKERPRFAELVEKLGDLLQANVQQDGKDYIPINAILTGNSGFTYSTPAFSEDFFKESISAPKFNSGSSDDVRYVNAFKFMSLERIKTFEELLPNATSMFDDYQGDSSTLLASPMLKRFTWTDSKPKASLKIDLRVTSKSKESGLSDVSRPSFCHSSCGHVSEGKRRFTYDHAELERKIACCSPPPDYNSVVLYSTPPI
# Method in brief: as §1
# kinases [13] = target: T13, kinases (Homo sapiens, UniProt P35916); conditions: 1 μM; FLT4
# T13 construct: purchased Eurofins/DiscoveRx; host or cells: E. coli BL21-derived host (T7 phage display) for most kinases; HEK-293 for the rest
# Method in brief: as §1
# kinases [14] = target: T14, kinases (Homo sapiens, UniProt P36888, D835Y); conditions: 1 μM; FLT3(D835Y)
# T14 construct: purchased Eurofins/DiscoveRx; host or cells: E. coli BL21-derived host (T7 phage display) for most kinases; HEK-293 for the rest
# T14 sequence (P36888 27-993 D835Y): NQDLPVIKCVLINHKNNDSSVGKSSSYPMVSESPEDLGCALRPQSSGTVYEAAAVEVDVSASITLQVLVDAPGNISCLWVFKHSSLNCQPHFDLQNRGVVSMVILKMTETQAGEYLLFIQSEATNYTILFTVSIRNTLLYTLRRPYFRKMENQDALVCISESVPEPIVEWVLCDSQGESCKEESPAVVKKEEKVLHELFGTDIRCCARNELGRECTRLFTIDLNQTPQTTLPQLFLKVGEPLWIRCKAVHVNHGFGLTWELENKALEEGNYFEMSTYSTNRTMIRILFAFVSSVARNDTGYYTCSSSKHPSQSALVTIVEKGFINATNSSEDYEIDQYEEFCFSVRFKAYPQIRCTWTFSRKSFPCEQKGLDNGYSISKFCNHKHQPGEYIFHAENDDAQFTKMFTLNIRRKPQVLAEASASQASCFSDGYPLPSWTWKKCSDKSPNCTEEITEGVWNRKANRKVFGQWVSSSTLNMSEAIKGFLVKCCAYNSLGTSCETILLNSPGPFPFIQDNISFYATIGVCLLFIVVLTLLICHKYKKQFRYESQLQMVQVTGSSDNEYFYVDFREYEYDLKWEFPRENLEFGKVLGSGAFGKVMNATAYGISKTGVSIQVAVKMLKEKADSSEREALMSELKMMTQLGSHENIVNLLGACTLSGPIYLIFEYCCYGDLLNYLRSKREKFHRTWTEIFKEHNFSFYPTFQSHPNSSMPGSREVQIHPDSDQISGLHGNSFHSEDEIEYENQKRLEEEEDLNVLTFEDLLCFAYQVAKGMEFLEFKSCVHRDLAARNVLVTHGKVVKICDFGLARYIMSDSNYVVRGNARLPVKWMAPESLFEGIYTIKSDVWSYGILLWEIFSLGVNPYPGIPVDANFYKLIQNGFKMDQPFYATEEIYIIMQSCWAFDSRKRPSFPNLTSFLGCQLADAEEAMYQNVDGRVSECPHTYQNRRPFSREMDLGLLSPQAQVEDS
# Method in brief: as §1
# kinases [15] = target: T15, kinases (Homo sapiens, UniProt P42684); conditions: 1 μM; ABL2
# T15 construct: purchased Eurofins/DiscoveRx; host or cells: E. coli BL21-derived host (T7 phage display) for most kinases; HEK-293 for the rest
# T15 sequence (P42684 whole entry): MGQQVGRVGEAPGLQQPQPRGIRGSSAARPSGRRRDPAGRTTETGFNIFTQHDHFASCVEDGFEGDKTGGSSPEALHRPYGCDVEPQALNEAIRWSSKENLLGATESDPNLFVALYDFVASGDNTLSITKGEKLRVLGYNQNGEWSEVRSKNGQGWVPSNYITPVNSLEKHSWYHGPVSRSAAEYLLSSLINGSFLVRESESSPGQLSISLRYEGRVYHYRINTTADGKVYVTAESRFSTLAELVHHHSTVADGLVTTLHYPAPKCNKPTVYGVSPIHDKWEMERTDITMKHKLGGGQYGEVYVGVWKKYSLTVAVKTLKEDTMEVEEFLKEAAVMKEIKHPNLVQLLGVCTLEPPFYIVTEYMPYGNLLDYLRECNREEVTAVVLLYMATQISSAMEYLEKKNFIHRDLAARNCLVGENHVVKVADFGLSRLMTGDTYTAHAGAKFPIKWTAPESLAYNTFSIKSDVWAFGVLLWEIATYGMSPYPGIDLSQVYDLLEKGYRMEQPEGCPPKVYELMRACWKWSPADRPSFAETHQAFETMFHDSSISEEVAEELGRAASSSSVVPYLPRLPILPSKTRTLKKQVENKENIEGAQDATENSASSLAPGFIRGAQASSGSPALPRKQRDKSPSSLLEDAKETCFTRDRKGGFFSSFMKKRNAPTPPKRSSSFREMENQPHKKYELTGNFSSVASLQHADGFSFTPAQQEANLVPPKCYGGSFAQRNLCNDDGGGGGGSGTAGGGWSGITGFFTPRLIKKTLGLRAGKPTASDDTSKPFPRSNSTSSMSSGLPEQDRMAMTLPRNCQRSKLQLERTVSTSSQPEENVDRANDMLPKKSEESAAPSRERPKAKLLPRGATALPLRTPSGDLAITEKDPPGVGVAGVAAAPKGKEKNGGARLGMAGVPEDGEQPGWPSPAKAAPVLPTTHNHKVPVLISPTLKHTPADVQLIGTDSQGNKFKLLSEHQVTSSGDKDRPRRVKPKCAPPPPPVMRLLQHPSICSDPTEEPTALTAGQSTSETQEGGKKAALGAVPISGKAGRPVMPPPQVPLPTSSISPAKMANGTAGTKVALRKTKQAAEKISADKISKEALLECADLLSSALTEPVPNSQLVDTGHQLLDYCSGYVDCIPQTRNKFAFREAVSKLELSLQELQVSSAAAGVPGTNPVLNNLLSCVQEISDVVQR
# Method in brief: as §1
"% Ctrl, ABL1-nonphosphorylated (kinases [1])","% Ctrl, ABL1-phosphorylated (kinases [1])","% Ctrl, ABL1(E255K)-phosphorylated (kinases [2])","% Ctrl, ABL1(Q252H)-nonphosphorylated (kinases [3])","% Ctrl, ABL1(Q252H)-phosphorylated (kinases [3])","% Ctrl, ABL1(T315I)-nonphosphorylated (kinases [4])","% Ctrl, ABL1(T315I)-phosphorylated (kinases [4])","% Ctrl, ABL1(Y253F)-phosphorylated (kinases [5])","% Ctrl, EGFR(L858R) (kinases [6])","% Ctrl, EGFR(L858R, T790M) (kinases [7])","% Ctrl, RET(V804M) (kinases [8])","% Ctrl, KIT(D816V) (kinases [9])","% Ctrl, KIT(V559D, T670I) (kinases [10])","% Ctrl, KIT(V559D) (kinases [11])","% Ctrl, FLT1 (kinases [12])","% Ctrl, FLT4 (kinases [13])","% Ctrl, FLT3(D835Y) (kinases [14])","% Ctrl, ABL2 (kinases [15])",SMILES
71 % Ctrl,59 % Ctrl,42 % Ctrl,75 % Ctrl,57 % Ctrl,90 % Ctrl,64 % Ctrl,58 % Ctrl,78 % Ctrl,97 % Ctrl,51 % Ctrl,76 % Ctrl,96 % Ctrl,97 % Ctrl,46 % Ctrl,74 % Ctrl,9.1 % Ctrl,100 % Ctrl,"Cc1cc2c([nH]1)/C=C1\C(=O)Nc3ccc(cc31)CN(C)C(=O)COCCNC2=O [Ex.111, [17a(18)Z]-2,11-dimethyl-6,7,11,12-tetrahydro-1H-13,15-(ethanediylidene)dipyrrolo[3,2-f:3′,4′-i][1,4,14]oxadiazacyclohexadecine-4,10,17(5H,9H,16H)-trione]"
83 % Ctrl,100 % Ctrl,92 % Ctrl,92 % Ctrl,100 % Ctrl,100 % Ctrl,100 % Ctrl,100 % Ctrl,94 % Ctrl,92 % Ctrl,99 % Ctrl,100 % Ctrl,97 % Ctrl,99 % Ctrl,96 % Ctrl,94 % Ctrl,72 % Ctrl,100 % Ctrl,"Cc1cc2c([nH]1)/C=C1\C(=O)Nc3cnc(cc31)-c1cnn(C)c1COCCNC2=O [Ex.123, [3a(4)Z]-6,14-dimethyl-10,11,13,14-tetrahydro-2H-17,1-(azenometheno)pyrazolo[4,3-m]dipyrrolo[3,2-f:3′,4′-i][1,4]oxazacyclopentadecine-3,8(5H,9H)-dione]"

# The next lines start with the compound.
SMILES,"% Ctrl, ABL1-nonphosphorylated (kinases [1])","% Ctrl, ABL1-phosphorylated (kinases [1])","% Ctrl, ABL1(E255K)-phosphorylated (kinases [2])","% Ctrl, ABL1(Q252H)-nonphosphorylated (kinases [3])","% Ctrl, ABL1(Q252H)-phosphorylated (kinases [3])","% Ctrl, ABL1(T315I)-nonphosphorylated (kinases [4])","% Ctrl, ABL1(T315I)-phosphorylated (kinases [4])","% Ctrl, ABL1(Y253F)-phosphorylated (kinases [5])","% Ctrl, EGFR(L858R) (kinases [6])","% Ctrl, EGFR(L858R, T790M) (kinases [7])","% Ctrl, RET(V804M) (kinases [8])","% Ctrl, KIT(D816V) (kinases [9])","% Ctrl, KIT(V559D, T670I) (kinases [10])","% Ctrl, KIT(V559D) (kinases [11])","% Ctrl, FLT1 (kinases [12])","% Ctrl, FLT4 (kinases [13])","% Ctrl, FLT3(D835Y) (kinases [14])","% Ctrl, ABL2 (kinases [15])"
"Cc1cc2c([nH]1)/C=C1\C(=O)Nc3ccc(nc31)-c1ccccc1OCCCNC2=O [Ex.22, [3a(4)Z]-6-methyl-9,10,11,12-tetrahydro-1,18-(ethanediylidene)dipyrrolo[3,2-g:3′,4′-j][1,5,12]benzoxadiazacyclopentadecine-3,8(2H,5H)-dione]",71 % Ctrl,69 % Ctrl,67 % Ctrl,87 % Ctrl,74 % Ctrl,97 % Ctrl,100 % Ctrl,68 % Ctrl,67 % Ctrl,97 % Ctrl,93 % Ctrl,96 % Ctrl,100 % Ctrl,96 % Ctrl,100 % Ctrl,92 % Ctrl,93 % Ctrl,95 % Ctrl
"Cc1cc2c([nH]1)/C=C1\C(=O)Nc3ccc(cc31)-c1ccnn1CCOCCNC2=O [Ex.39, [19a(20)Z]-2-methyl-6,7,9,10-tetrahydro-1H-15,17-(ethanediylidene)pyrazolo[1,5-d]dipyrrolo[3,4-h:2′,3′-k][1,4,14]oxadiazacyclohexadecine-4,19(5H,18H)-dione]",73 % Ctrl,78 % Ctrl,72 % Ctrl,84 % Ctrl,93 % Ctrl,95 % Ctrl,26 % Ctrl,98 % Ctrl,64 % Ctrl,90 % Ctrl,94 % Ctrl,91 % Ctrl,85 % Ctrl,99 % Ctrl,95 % Ctrl,98 % Ctrl,96 % Ctrl,89 % Ctrl
"Cc1cc2c([nH]1)/C=C1\C(=O)Nc3cnc(nc31)N(C)CCCOCCN(C)C2=O [Ex.71, [17a(18)Z]-2,5,12-trimethyl-6,7,9,10,11,12-hexahydro-1H-13,15-(azenometheno)dipyrrolo[3,2-f:3′,4′-i][1,4,11,13]oxatriazacyclohexadecine-4,17(5H,16H)-dione]",90 % Ctrl,93 % Ctrl,85 % Ctrl,97 % Ctrl,100 % Ctrl,100 % Ctrl,100 % Ctrl,91 % Ctrl,9 % Ctrl,100 % Ctrl,89 % Ctrl,100 % Ctrl,100 % Ctrl,100 % Ctrl,98 % Ctrl,95 % Ctrl,94 % Ctrl,100 % Ctrl
"Cc1cc2c([nH]1)/C=C1\C(=O)Nc3ccc(cc31)OCCOCCN(C)C2=O [Ex.91, [16a(17)Z]-2,5-dimethyl-6,7,9,10-tetrahydro-1H-12,14-(ethanediylidene)dipyrrolo[3,2-i:3′,4′-l][1,4,7]dioxazacyclopentadecine-4,16(5H,15H)-dione]",0.75 % Ctrl,15 % Ctrl,14 % Ctrl,2.8 % Ctrl,11 % Ctrl,4.5 % Ctrl,5.8 % Ctrl,7.8 % Ctrl,100 % Ctrl,58 % Ctrl,4 % Ctrl,20 % Ctrl,34 % Ctrl,62 % Ctrl,83 % Ctrl,9.9 % Ctrl,0.25 % Ctrl,32 % Ctrl
